Experimental data: patent US20240368139A1, “NOVEL MODULATORS OF EHMT1 AND EHMT2 AND THERAPEUTIC USE THEREOF” (Tango Therapeutics, Inc., priority 2021, published 2024)

How the values were obtained:
human EHMT1 982-1266 = molecular target: T1, human EHMT1 982-1266 (Homo sapiens, UniProt Q9H9B1); assay: EHMT1 enzyme assay on histone peptide substrate (3H-SAM SPA); conditions: EHMT1 IC50, recombinant human EHMT1 982-1266, histone peptide substrate
T1 sequence (Q9H9B1 982-1266): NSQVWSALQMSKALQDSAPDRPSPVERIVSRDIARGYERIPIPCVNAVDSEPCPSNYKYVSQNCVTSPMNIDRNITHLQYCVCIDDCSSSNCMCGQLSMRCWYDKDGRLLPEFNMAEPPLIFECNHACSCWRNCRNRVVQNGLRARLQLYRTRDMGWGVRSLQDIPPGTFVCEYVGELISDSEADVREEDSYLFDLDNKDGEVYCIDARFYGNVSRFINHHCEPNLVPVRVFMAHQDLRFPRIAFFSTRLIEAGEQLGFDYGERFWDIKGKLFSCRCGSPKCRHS

H3K9me2 in HCT116 cells = assay: HCT116 H3K9me2 in-cell western assay; type: cell-based; conditions: Homo sapiens, HCT-116, 72 h, HCT116 cells, 72 hours incubation; read-out: H3K9me2 ICW IC50
Method in brief: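 H3K9me2 signal (800 nm) was normalized to DRAQ5 DNA stain (700 nm) in an in-cell western. Cells were fixed with paraformaldehyde and probed overnight at 4° C with primary antibody.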

human EHMT2 913-1193 = molecular target: T2, human EHMT2 913-1193 (Homo sapiens, UniProt Q96KQ7); assay: EHMT2 enzyme assay on histone peptide substrate (3H-SAM SPA); conditions: EHMT2 IC50, recombinant human EHMT2 913-1193, histone peptide substrate
T2 sequence (Q96KQ7 913-1193): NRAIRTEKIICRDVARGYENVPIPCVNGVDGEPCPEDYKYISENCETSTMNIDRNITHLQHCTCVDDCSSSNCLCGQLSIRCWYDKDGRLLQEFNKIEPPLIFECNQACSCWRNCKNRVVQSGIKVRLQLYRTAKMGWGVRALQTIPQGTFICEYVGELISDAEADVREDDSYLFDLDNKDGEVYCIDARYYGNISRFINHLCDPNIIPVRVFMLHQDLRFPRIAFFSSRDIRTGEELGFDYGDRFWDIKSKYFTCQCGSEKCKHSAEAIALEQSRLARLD

| SMILES | IC50 (human EHMT1 982-1266) [nM] | IC50 (H3K9me2 in HCT116 cells) [nM] | IC50 (human EHMT2 913-1193) [nM] |
| --- | --- | --- | --- |
| CNc1cc(C)nc(Nc2cc3c(c(C4=CCN(CC(F)F)CCC4)c2F)OCC3)n1 [Compound 199] | 100 to 500 | 100 to 500 | 500 to 2000 |
| CNc1cc(C)nc(Nc2cc3c(c(C4=CC(C)N(C)CCC4)c2F)OCC3)n1 (stereo not drawn) [Compound 200] | 100 to 500 | 100 to 500 | 500 to 2000 |
| CNc1cc(C)nc(Nc2cc3c(c(C4=CCN(C)CCC4)c2F)OCO3)n1 [Compound 203] | < 100 | < 100 | < 100 |
| CNc1cc(C)nc(Nc2cc3c(c(C4=CCN(C)C(C)CC4)c2F)OCC3)n1 (stereo not drawn) [Compound 204] | < 100 | < 100 | < 100 |
| CNc1nc(Nc2cc3c(c(C4=CCN(C)CCC4)c2F)OCO3)nc(C)c1F [Compound 205] | 100 to 500 | 100 to 500 | 500 to 2000 |
| CNc1cc(C)nc(Nc2cc3c(c(C4=CC(C)NCCC4)c2F)OCC3)n1 (stereo not drawn) [Compound 206] | < 100 | < 100 | 100 to 500 |
| CNc1cc(C)nc(Nc2cc3c(c(C4=CCNCCC4)c2F)OCO3)n1 [Compound 207] | < 100 | < 100 | < 100 |
| CNc1cc(Nc2cc3c(c(C4=CCN(C)CCC4)c2F)OCO3)nc(C)c1F [Compound 208] | 100 to 500 | 100 to 500 | 100 to 500 |
| CNc1nc(Nc2cc3c(c(C4=CCNCCC4)c2F)OCO3)nc(C)c1F [Compound 209] | 100 to 500 | < 100 | 100 to 500 |
| CCc1c(C)nc(Nc2cc3c(c(C4=CCN(C)CCC4)c2F)OCC3)nc1NC [Compound 210] | < 100 | < 100 | 100 to 500 |
| CNc1cc(Nc2cc3c(c(C4=CCNCCC4)c2F)OCO3)nc(C)c1F [Compound 211] | < 100 | < 100 | < 100 |
| CCc1c(C)nc(Nc2cc3c(c(C4=CCNCCC4)c2F)OCC3)nc1NC [Compound 212] | < 100 | < 100 | < 100 |
| CNc1nc(Nc2cc3c(c(C4=CCN(C)CCC4)c2F)OCC3)nc(C)c1C [Compound 214] | < 100 | < 100 | < 100 |
| CNc1nc(Nc2cc3c(c(C4=CCN(C)CCC4)c2F)OCC3)nc(C)c1Cl [Compound 215] | 100 to 500 | 100 to 500 | 500 to 2000 |
| [2H]C([2H])([2H])CNc1cc(C)nc(Nc2cc3c(c(C4=CCN(C)CCC4)c2F)OCC3)n1 [Compound 217] | < 100 | < 100 | < 100 |
| [2H]Cc1nc(Nc2cc3c(c(C4=CCN(C)CCC4)c2)OCC3)nc(NC)c1F [Compound 218] | 100 to 500 | 100 to 500 | 500 to 2000 |
| [2H]Cc1nc(Nc2cc3c(c(C4=CCN(C)CCC4)c2F)OCC3)nc(NC([2H])([2H])[2H])c1F [Compound 219] | 100 to 500 | < 100 | 100 to 500 |
| [2H]Cc1nc(Nc2cc3c(c(C4=CCN(C)CCC4)c2)OCC3)nc(NC([2H])([2H])[2H])c1F [Compound 220] | 100 to 500 | 100 to 500 | 500 to 2000 |
| [2H]Cc1nc(Nc2cc3c(c(C4=CCN(C)CCC4)c2F)OCC3)nc(NC)c1F [Compound 221] | 100 to 500 | < 100 | 500 to 2000 |
| [2H]Cc1nc(Nc2cc3c(c(C4=CCN(C)CCC4)c2F)OCC3)nc(NCC([2H])([2H])[2H])c1F [Compound 222] | 100 to 500 | 100 to 500 | 500 to 2000 |

| SMILES | IC50 (human EHMT1 982-1266) [nM] | IC50 (H3K9me2 in HCT116 cells) [nM] | IC50 (human EHMT2 913-1193) [nM] |
| --- | --- | --- | --- |
| CNc1nc(Nc2cc3c(c(C4=CCNCCC4)c2F)OCC3)nc(C)c1C [Compound 223, N2-[6-fluoro-7-(2,3,4,7-tetrahydro-1H-azepin-5-yl)-2,3-dihydrobenzofuran-5-yl]-N4,5,6-trimethyl-pyrimidine-2,4-diamine] | < 100 | < 100 | < 100 |
| CNc1nc(Nc2cc3c(c(C4=CCNCCC4)c2F)OCC3)nc(C)c1Cl [Compound 224] | < 100 | < 100 | < 100 |
| [2H]Cc1nc(Nc2cc3c(c(C4=CCNCCC4)c2F)OCC3)nc(NC([2H])([2H])[2H])c1F [Compound 225] | < 100 | < 100 | < 100 |
| [2H]Cc1nc(Nc2cc3c(c(C4=CCNCCC4)c2F)OCC3)nc(NCC([2H])([2H])[2H])c1F [Compound 226] | < 100 | 100 to 500 | 100 to 500 |
| [2H]C([2H])([2H])N1CC=C(c2c(F)c(Nc3nc(C)cc(NC)n3)cc3c2OCC3)CCC1 [Compound 227] | < 100 | < 100 | < 100 |
| [2H]C([2H])([2H])Nc1nc(Nc2cc3c(c(C4=CCN(C)CCC4)c2F)OCC3)nc(C)c1F [Compound 228] | < 100 | 100 to 500 | 100 to 500 |
| [2H]Cc1nc(Nc2cc3c(c(C4=CCNCCC4)c2)OCC3)nc(NC)c1F [Compound 229] | < 100 | 100 to 500 | 100 to 500 |
| [2H]Cc1cc(NC([2H])([2H])[2H])nc(Nc2cc3c(c(C4=CCN(C)CCC4)c2)OCCO3)n1 [Compound 230] | < 100 | 100 to 500 | 100 to 500 |
| [2H]C([2H])([2H])CNc1cc(C)nc(Nc2cc3c(c(C4=CCNCCC4)c2F)OCC3)n1 [Compound 231] | < 100 | < 100 | < 100 |
| [2H]Cc1nc(Nc2cc3c(c(C4=CCNCCC4)c2)OCC3)nc(NC([2H])([2H])[2H])c1F [Compound 232] | 100 to 500 | 100 to 500 | 100 to 500 |
| [2H]Cc1nc(Nc2cc3c(c(C4=CCNCCC4)c2)OCO3)nc(NCC([2H])([2H])[2H])c1F [Compound 233] | 100 to 500 | 500 to 2000 | 500 to 2000 |
| [2H]Cc1cc(NC([2H])([2H])[2H])nc(Nc2cc3c(c(C4=CCN(C)CCC4)c2F)OCC3)n1 [Compound 234] | < 100 | < 100 | < 100 |
| [2H]Cc1nc(Nc2cc3c(c(C4=CCNCCC4)c2F)OCC3)nc(NC)c1F [Compound 235] | < 100 | < 100 | < 100 |
| CNc1cc(Nc2cc3c(c(C4=CCN(C)CCC4)c2F)OCCC3)nc(C)c1F [Compound 236] | < 100 | 100 to 500 | 100 to 500 |
| [2H]Cc1nc(Nc2cc3c(c(C4=CCNCCC4)c2)OCC3)nc(NCC([2H])([2H])[2H])c1F [Compound 237] | 100 to 500 | 100 to 500 | 500 to 2000 |
| [2H]C([2H])([2H])Nc1cc(C)nc(Nc2cc3c(c(C4=CCN(C)CCC4)c2F)OCC3)n1 [Compound 238] | < 100 | < 100 | < 100 |
| CCNc1nc(Nc2cc3c(c(C4=CCNCCC4)c2F)OCC3)nc(C)c1F [Compound 239] | < 100 | 100 to 500 | 100 to 500 |
| [2H]Cc1nc(Nc2cc3c(c(C4=CCNCCC4)c2)OCO3)nc(NC([2H])([2H])[2H])c1F [Compound 240] | 100 to 500 | 100 to 500 | 100 to 500 |
| CCNc1nc(Nc2cc3c(c(C4=CCN(C)CCC4)c2F)OCC3)nc(C)c1F [Compound 241] | 100 to 500 | 100 to 500 | 500 to 2000 |
